# Reference: patent US6376212B1, “Polypeptide compounds and nucleotide sequences promoting resistance to eutypa dieback in plants” (Societe des Domaines Viticoles Martell, priority 1997, dated 2002)
# T1: protein encoded in the VRER gene (Vigna radiata, UniProt Q9SQK0)
# T1 sequence (Q9SQK0 1-325): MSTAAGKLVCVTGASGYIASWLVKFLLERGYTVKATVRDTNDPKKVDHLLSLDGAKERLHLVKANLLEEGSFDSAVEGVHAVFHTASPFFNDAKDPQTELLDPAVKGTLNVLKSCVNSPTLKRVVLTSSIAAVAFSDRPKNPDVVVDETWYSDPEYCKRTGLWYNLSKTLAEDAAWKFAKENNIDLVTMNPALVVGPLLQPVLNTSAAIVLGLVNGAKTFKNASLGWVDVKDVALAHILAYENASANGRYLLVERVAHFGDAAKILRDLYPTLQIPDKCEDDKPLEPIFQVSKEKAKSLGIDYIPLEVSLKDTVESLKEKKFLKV
# B1: protein corresponding to the VRER gene: polypeptide of 325 amino acids from Vigna radiata with eutypine reductase activity, SEQ ID NO. 4 (protein)
# chain: T1 sequence (Q9SQK0 1-325)
# Tests used:
# [1] = target: T1, protein encoded in the VRER gene; assay: Biochemical characteristics of the protein encoded in the VRER gene (substrate reduction with NADPH); settings: in the presence of NADPH
# Text: The protein encoded in the VRER gene was characterized biochemically. […] It was also investigated whether this protein was capable of reducing other substrates.
# [2] = tested on: eutypine reductase; assay: Conversion of eutypine to eutypinol: effect of reductase inhibitors; assay type: biochemical, grapevine
# Text: The conversion of eutypine to eutypinol is catalyzed by a non-membrane enzyme, which specifically requires NADPH as co-factor. Its activity is reduced by reductase inhibitors such as disulfiram and parahydroxymercuribenzoic acid, confirming its membership of this group of enzymes. It has been called “eutypine reductase”. The reaction scheme is shown below. [drawing 2]
# [3] = tested on: protoplasts obtained from leaves of vitroplants of Vitis vinifera cv. Cabernet Sauvignon; assay: Viability of leaf protoplasts cultured with eutypine or eutypinol; assay type: cell-based; settings: for Viability after 48 hours: protoplasts 4.5×10^5/ml
# Experimental: (§1) The protoplasts (4.5×10^5/ml) are cultured in the presence of eutypine or eutypinol for 48 hours.
# [4] = tested on: grapevine cells; assay: Penetration of eutypine into grapevine cells; assay type: cell-based
# Text: The investigation of the mode of action of eutypine in the grapevine cells was made possible owing to the availability of eutypine in the unlabelled form and in the radioactive form, labelled with carbon 14.
# This toxic molecule then accumulates in the cytoplasm by an acid trapping mechanism and, owing to its lipophilic character, inserts itself into the lipids of the membranes.
# [5] = tested on: untransformed calluses (GWT); assay: Biotest II: growth of calluses on media containing eutypine; settings: 500 μM of eutypine; wildtype calluses
# [6] = tested on: grapevine vitroplants; assay: Application of eutypine to grapevine vitroplants; assay type: in vivo
# [7] = Viability of leaf protoplasts cultured with eutypine or eutypinol; assay type: cell-based, Vitis vinifera; settings: Vitis vinifera, protoplasts 4.5×10^5/ml, 48 hours, read-out: Viability after 48 hours
# Experimental: as §1
# [8] = tested on: mitochondria; assay: Decoupling of oxidative phosphorylation in mitochondria; assay type: biochemical
# Experimental: The mode of action of eutypine was confirmed by investigating its effects on the functioning of mitochondria. Eutypine acts as a decoupling agent of oxidative phosphorylation. The complete decoupling of the mitochondria is attained at concentrations of eutypine close to 150 μM.
# [9] = tested on: protoplasts of Merlot; assay: Degradation of eutypine by protoplasts (detoxification activity); assay type: in vitro ADME, Vitis vinifera; settings: Merlot (tolerant); eutypine 100 μM, 1 hour, 30° C.
# Experimental: (§2) The protoplasts (10^6/ml) obtained from leaves of vitroplants are incubated for 1 hour at 30° C. in the presence of eutypine (100 μM; 0.4 kBq). Then, the phenylacetylenic compounds are extracted, separated by thin layer chromatography and the metabolic rate of eutypine is calculated after determination of the radioactivity associated with eutypine and eutypinol.
# [10] = tested on: protoplasts of Ugni blanc; assay: as above; assay type: in vitro ADME, Vitis vinifera; settings: Ugni blanc (very sensitive); eutypine 100 μM, 1 hour, 30° C.
# Experimental: as §2
# [11] = tested on: protoplasts of Cabernet Sauvignon; assay: as above; assay type: in vitro ADME, Vitis vinifera; settings: Cabernet Sauvignon (sensitive); eutypine 100 μM, 1 hour, 30° C.
# Experimental: as §2
# [12] = tested on: transformed calluses (GA); assay: Biotest II: growth of calluses on media containing eutypine; settings: 500 μM of eutypine; GA variety
# [13] = tested on: protoplasts obtained from grapevine leaves; assay: Tolerance of leaf protoplasts to eutypine; assay type: cell-based; settings: Cabernet Sauvignon protoplasts compared with Merlot protoplasts
# Text: the eutypine applied to simplified biological systems causes more serious symptoms in the varieties sensitive to eutypa dieback than in varieties of grapevines tolerant to this disease.
# [14] = tested on: transformed (GA, GB, GC, GD) grapevine cells; assay: Biotest I: mortality of grapevine cells in suspension with eutypine (erythrosine); assay type: cell-based, Vitis vinifera cv Gamay
# Experimental: (§3) In the biotest I, the percentage of dead cells was estimated by means of the erythrosine reagent. The concentration of eutypine inducing a percentage of dead cells of 50% is determined in the wildtype strain and in the transformed varieties.
# [15] = tested on: untransformed (GWT) grapevine cells; assay: as above; assay type: cell-based, Vitis vinifera cv Gamay; settings: GWT wildtype
# Experimental: as §3
# [16] = tested on: grapevine cells; assay: Consumption of oxygen of grapevine cells; assay type: cell-based; settings: activation at low dose
# Experimental: Eutypine affects the functioning of the membrane systems of the grapevine cells. It causes the acidification of the cytoplasm, the reduction of leucine transport, the activation at low dose of the consumption of oxygen and its inhibition above 160 μM, and a diminution of the energy load of the cells.
# [17] = tested on: untransformed (UBWT) calluses of Vitis vinifera cv Ugni blanc; assay: Biotest II: development of calluses in the presence of eutypine; assay type: cell-based
# Experimental: (§4) The transformation experiments were also performed on calluses of Vitis vinifera cv Ugni blanc by making use of the same experimental protocol as that used for the transformation of the calluses of Vitis vinifera cv. Gamay.
# (§5) The analysis of the behaviour of the calluses of Vitis vinifera cv Ugni blanc towards eutypine was performed by using biotest II.
# [18] = tested on: transformed (UBT) calluses of Vitis vinifera cv Ugni blanc; assay: as above; assay type: cell-based
# Experimental: as §4, §5
# [19] = Reduction of eutypine by lysate of E. coli overexpressing the VRER protein; assay type: biochemical, Vigna radiata; settings: NADPH, radioactive eutypine, thin layer chromatography
# Text: For that, the complementary DNA of the VRER gene was cloned in an expression vector, then transferred into the bacteria. The lysate of these bacteria which overexpress the protein corresponding to the VRER gene uses the co-factor NADPH to reduce eutypine.
molecule,measurement,setting,value
2-fluoraldehyde,reduction by the ER protein,[1],reduced
CCCCCCCCCC=O [decylaldehyde],reduction by the ER protein,[1],reduced
O=C(O)c1cc[c]([Hg][OH])cc1 [parahydroxymercuribenzoic acid],activity of eutypine reductase in the presence of reductase inhibitor,[2],reduced
O=Cc1ccccc1 [benzaldehyde],reduction by the ER protein,[1],reduced
"C=C(C)C#Cc1cc(CO)ccc1O [Eutypinol, 4-hydroxy-3-(3-methylbut-3-en-1-ynyl) benzylic alcohol]",Viability after 48 hours,[3]; 200 μM,86
same,Viability after 48 hours,[3]; 500 μM,83
same,toxicity to the grapevine,[3]; even at high concentrations,does not show toxicity
O=Cc1ccncc1 [4-pyridine carbaldehyde],reduction by the ER protein,[1],reduced
CCCCCC=O [hexanal],reduction by the ER protein,[1],reduced
"C=C(C)C#Cc1cc(C=O)ccc1O [Eutypine, 4-hydroxy-3-(3-methylbut-3-en-1-ynyl) benzaldehyde]",penetration into the grapevine cells,[4],passive diffusion
same,development of calluses,[5],do not develop
same,symptoms of the disease,[6]; applied to grapevine vitroplants,reproduces certain symptoms of the disease
same,ultrastructural alterations in the leaves,[6]; leaves of vitroplants,induces ultrastructural alterations
same,"viability at 48 h, 100 µM",[7]; 100 μM,67%
same,"viability at 48 h, 200 µM",[7]; 200 μM,0%
same,concentration for complete decoupling of the mitochondria,[8],~150 µM
same,Detoxification activity,[9],13.6 pmol/min/10^5 cells
same,Detoxification activity,[10],7.9 pmol/min/10^5 cells
same,Detoxification activity,[11],10.1 pmol/min/10^5 cells
same,development of calluses,[12],does not exhibit necroses
same,tolerance of protoplasts to eutypine,[13],lower tolerance
same,LD50 (eutypine concentration causing the mortality of 50%),[14]; GA transformed cells in suspension,255 µM
same,LD50 (eutypine concentration causing the mortality of 50%),[14]; GB transformed cells in suspension,250 µM
same,LD50 (eutypine concentration causing the mortality of 50%),[14]; GC transformed cells in suspension,230 µM
same,LD50 (eutypine concentration causing the mortality of 50%),[14]; GD transformed cells in suspension,225 µM
same,LD50 (eutypine concentration causing the mortality of 50%),[15],100 µM
same,concentration for inhibition of the consumption of oxygen,[16],above 160 μM
same,Mean mass of a callus,"[17]; 500 μM of eutypine, UBWT",25 mg
same,development of calluses,"[17]; 500 μM, wildtype variety",necrose rapidly and do not develop
same,Mean mass of a callus,"[18]; 500 μM of eutypine, UBT",150 mg
same,growth of the calluses,"[18]; 500 μM, transformed UB variety",practically unaffected
B1,eutypine reductase activity,[19],exhibits a “eutypine reductase” activity in vitro
